Where two headings read alike, the source gives them in different places.
What was measured:
[1] = test system: P. falciparum strain 3D7; assay: Asexual blood stage 3H-hypoxanthine incorporation assay, 3D7; assay type: cell-based, Plasmodium falciparum; settings: Plasmodium falciparum
Description: (§1) The 48-h assay was carried out in a 96-well format following standard methods using the ^3H-hypoxanthine incorporation assay. The raw EC50 values corresponding to this assay can be found in Supplementary Data 3. Briefly, this assay relies on the parasite incorporation of labelled hypoxanthine that is proportional to P. falciparum growth. A culture of parasitized RBCs (0.5% parasitemia with a percentage of ring stage higher than 70% of total parasitemia, 2.0% haematocrit) in RPMI-1640, […] and 5 μM hypoxanthine was exposed to drug serial dilutions. Plates were incubated for 24 h at 37 °C, 5% CO2, 5% O2 and 90% N2. After 24 h of incubation, ^3H-hypoxanthine was added and plates were incubated for an additional 24-h period. After that, parasites were harvested on a glass fibre filter using a TOMTEC Cell Harvester 96. Filters were dried and melt-on scintillator sheets were used to determine the incorporation of ^3H-hypoxanthine. Radioactivity was measured using a microbeta counter. Data were normalized using the incorporation of the positive (parasitized RBCs without drug) and negative (same culture with artesunate at 2 μM) controls. All assays were conducted in triplicate using three independently grown cultures, and EC50 values were determined using the XLfit add-in module for Excel (version 2.3.1) from Grafit (version 5.3.1.3), where parameter h is the assay hill slope, x is the compound concentration and y is the inhibition of growth effect. The XLfit equation is: […]

[2] = test system: P. berghei exoerythrocytic forms; assay: Liver-stage P. berghei hepatocyte invasion and development assay (luminescence, HepG2); assay type: cell-based, Plasmodium berghei; settings: for EC50: Plasmodium berghei; for EC50 fold shift compared to asexual stage: Liver Stage EC50: liver stage EC50 / 3D7 EC50
Source text: (§2) As drugs that eliminate multiple stages of the parasite lifecycle will be critical components in global efforts to eliminate malaria, we were interested in knowing whether the compounds in our study had additional activities against either the liver and/or transmission stages of the parasite lifecycle. To determine this, we first evaluated the compounds in additional phenotypic assays. The first assay was a P. berghei hepatocyte invasion and development assay, which predicts causal prophylactic activity. Hepatocyte toxicity was additionally tested to identify false-positive activity in the liver stage due to host-cell toxicity. Assays were executed in duplicate using a 12-point EC50 curve at starting concentrations of 5 μM or 50 μM (Supplementary Table 1).
(§3) Liver-stage activity was determined by pretreating hepatic human cells (HepG2) for 2 h with compound in 1,536-well plates infected with freshly dissected P. berghei sporozoites. After 48 h of incubation, the viability of P. berghei exoerythrocytic forms was measured by luminescence reaction light output using BrightGlo (Promega). Varying levels of compound concentration were used (5 μM or 50 μM) due to the stock concentration supplied.

[3] = test system: HepG2; assay: Hepatocyte toxicity; assay type: cell-based, human; settings: for Hepatocyte Toxicity: HepG2; for EC50 fold shift compared to asexual stage: Hepatocyte Toxicity: hepatocyte toxicity / 3D7 EC50; for Liver Stage / Hepatocyte Toxicity: toxicity fold shift for the liver stage (hepatocyte toxicity vs liver stage EC50)
Source text: as §2, §3

[4] = test system: CYTbQi (cytb G33A, parent Dd2); assay: Cross-resistance EC50 assay, CYTbQi; assay type: cell-based; settings: Plasmodium falciparum; SYBR green 72 hour assay; synchronized parasites; 384-well format; strain CYTbQi (Dd2 parent)
Source text: (§4) To evaluate potential overlapping activity against known antimalarial drug targets, we performed dose-response studies with each compound against our assembled set of drug-resistant lines and their corresponding parents, in an asexual blood stage proliferation assay (Table 1). Comparisons were made to the drug-sensitive strain 3D7 when a parent was unavailable (TM90C2A, W2 and Dd2). As laboratories conducted EC50 assays with different strains and protocols, all comparisons were made between assays from the same laboratory and under the same assay conditions. Compounds displaying >5-fold EC50 shifts relative to the parent or sensitive strain were flagged as having potentially non-novel targets. Average fold shifts per strain ranged from 0.82 to 2.34, with a median of 1.23 indicating there was not common resistance to any one resistant clone. No resistance patterns were observed when classifying the compounds based on chemical structure, but this was not surprising given the diversity of compounds chosen. On the other hand, given that these confirmed compounds were derived from larger unconfirmed hit lists to which some filtration criteria may have been applied (for example, elimination of obvious dihydrofolate reductase inhibitors[32]), some[10][11][12][13] pre-existing bias may exist in the set. […]
(§5) Alternatively, a SYBR Green-based proliferation approach was used for the 72-h assay, as previously described. Briefly, a culture of either synchronized or asynchronous parasitized RBCs (0.3% parasitemia and 4% haematocrit) in screening medium (identical to supplemented medium above except no serum was added) was exposed to serial drug dilutions. Plates were incubated at 37 °C and gassed with 93% N2, 4% CO2 and 3% O2 for 72 h. Following incubation, 10 × SYBR Green I (Invitrogen; supplied in 10,000 × concentration) in lysis buffer ([…], 5 mM EDTA, 0.16% Saponin wt per vol and 1.6% Triton X vol per vol) was added to the wells and the plates were incubated overnight at room temperature before plate reading. EC50 assays were repeated three times, taking the average EC50 value from each assay set, and removing any outliers using a single iteration of Grubbs' test, eliminating values with z-scores above the critical z-value (α=0.05). The raw EC50 values for synchronized parasites assayed in a 384-well format are listed in Supplementary Data 4. The raw EC50 values for asynchronous parasites assayed in a 96 or 1536-well format are listed in Supplementary Data 5.
(§6) EC50 values for each strain were compared with those of the corresponding parent strain to determine fold-shift changes and identify resistance. To minimize the cause variance between assays, all comparisons were conducted between strains assayed under identical conditions. A one-way ANOVA followed by a Dunnet's post-test was conducted in GraphPad Prism to identify significant changes between the parent and resistant strain.

[5] = test system: GNF449-R2 (PfATP4 I203L and P990R, parent Dd2); assay: Cross-resistance EC50 assay, GNF449-R2; assay type: cell-based; settings: Plasmodium falciparum, SYBR green 72 hour assay, asynchronized parasites, 96-well or 1536-well format
Source text: as §4, §5, §6

[6] = test system: TM90C2A (DHFR, folate pathway; compared with 3D7); assay: Cross-resistance EC50 assay, TM90C2A; assay type: cell-based; settings: Plasmodium falciparum, 48 h, read-out: TM90C2A (3D7 Parent) Average EC50
Source text: To evaluate potential overlapping activity against known antimalarial drug targets, we performed dose-response studies with each compound against our assembled set of drug-resistant lines and their corresponding parents, in an asexual blood stage proliferation assay (Table 1). Comparisons were made to the drug-sensitive strain 3D7 when a parent was unavailable (TM90C2A, W2 and Dd2). As laboratories conducted EC50 assays with different strains and protocols, all comparisons were made between assays from the same laboratory and under the same assay conditions. Compounds displaying >5-fold EC50 shifts relative to the parent or sensitive strain were flagged as having potentially non-novel targets. Average fold shifts per strain ranged from 0.82 to 2.34, with a median of 1.23 indicating there was not common resistance to any one resistant clone. No resistance patterns were observed when classifying the compounds based on chemical structure, but this was not surprising given the diversity of compounds chosen. On the other hand, given that these confirmed compounds were derived from larger unconfirmed hit lists to which some filtration criteria may have been applied (for example, elimination of obvious dihydrofolate reductase inhibitors[32]), some[10][11][12][13] pre-existing bias may exist in the set.
as §1, §6

[7] = HepG2, 48 h, P. berghei sporozoites, HepG2, 48 h, read-out: Liver Stage EC50
[8] = 3D7, asexual stage, P. falciparum 3D7, read-out: 3D7 EC50

Structure (SMILES) | EC50 ([1]; 3D7, text value, read-out: asexual stage EC50) [nM] | EC50 [2, 7] [nM] | EC50 ([2]; HepG2, text values, read-out: Liver stage EC50 (PfLuc EC50)) [nM] | EC50 fold shift compared to asexual stage: Liver Stage EC50 [2] | Hepatocyte Toxicity [3] [µM] | EC50 fold shift compared to asexual stage: Hepatocyte Toxicity [3] | Liver Stage / Hepatocyte Toxicity [3] | EC50 [4] [nM] | EC50 [5] [µM] | EC50 [6] [nM] | EC50 [1, 8] [nM]
CN(C)S(=O)(=O)c1cc(-c2ccc3nccc(-c4cccc(S(N)(=O)=O)c4)c3c2)cnc1N [MMV024038] | 228 | 10.8 | 10 | 0.05 | 0.1461 | 0.64 | 13.52 | 164 | 1 | 194 | 
COCCNCC(O)Cn1c2ccc(Cl)cc2c2cc(Cl)ccc21 (centres unmarked) [MMV019017] |  | > 5000 |  | > 10 | > 5 | > 10 |  | 549 | 0.636 | 868 | 480
CCC(C)NCC(O)(c1ccc(Cl)cc1)c1ccc(Cl)cc1 (centres unmarked) [MMV665928] |  | > 5000 |  | > 10 | > 5 | > 10 |  | 492 | 0.16 | 432 | 494
O=C(Nc1ccc(Cl)c(Cl)c1)Nc1ccc(Cl)c(Cl)c1 [MMV665852] |  | 343 |  |  | 2.594 |  | 7.56 | 1010 | 1.95 | 566 | 1170
Brc1ccc(Nc2nc3ccccc3nc2Nc2ccc(Br)cc2)cc1 [MMV007224] |  | 514 |  | 2.32 | 1.868 | 8.41 | 3.63 | 327 | 0.717 | 154 | 222
Nc1ncc(-c2cn[nH]c2)cc1-c1nc2ccc(F)cc2[nH]1 [MMV023367] |  | 611 |  | 2.02 | 4.228 | 14.00 | 6.92 | 626 | 2.66 | 445 | 302
CCOc1cc2c(cc1OCC)C(c1cc(Cl)ccc1O)NCC2 (centres unmarked) [MMV000478] |  | > 5000 |  | > 5 | > 5 | > 5 |  | 817 | 0.648 | 1440 | 1070
CC(C)c1cccc(C(NC(=O)C2Cc3ccccc3CN2C(=O)c2cccc(N3CCOCC3)c2)C2CCCC2)c1 (centres unmarked) [MMV028038] |  | 5360 |  | 9.92 | 19.24 | 35.63 | 3.59 | 339 | 0.555 | 287 | 540
O=C(Nc1ccsc1C(=O)NC1CCCCC1)c1ccc(F)cc1 [MMV665939] |  | > 5000 |  |  | > 5 |  |  | 1610 | 2.21 | 1350 | 1040
CN1CCN(c2ccc(Nc3c4ccccc4nc4ccccc34)cc2)CC1 [MMV006172] |  | 2060 |  |  | 4.554 |  | 2.21 | 107 | 0.31 | 162 | 95
CN(C)Cc1ccc(-c2cc3c(-c4ccc(CN(C)C)cc4)ccnc3[nH]2)cc1.O=C(O)C(F)(F)F [MMV022224] |  | 801 |  |  | 2.32 |  | 2.90 | 327 | 0.518 | 738 | 388
c1cncc(-c2cc(N3CCC(CN4CCOCC4)CC3)nc(-c3ccncc3)n2)c1 [MMV668399] |  | 7040 |  |  | > 50 |  | > 7 | 162 | 0.938 | 86 | 83
